Results published in US20260224528A1, “PSILOCIN FORMULATIONS” (Eleusis Therapeutics US, Inc., priority 2023, published 2026).

Test: Stability of DS in aqueous solution
Type: physicochemical
Details: pH range of 4 to 9; rapid degradation and discoloration
Experimental: The goal of this study was to develop an isotonic stable formulation with the psilocin benzoate Drug Substance (DS) concentration ranging from 0.5 to 3.0 mg/mL (mg free base psilocin) as a bulk sterile solution, having a pH in the range of 4 to 9 in a single use glass vial suitable for IV injection. […] This led to the development of a formulation of psilocin benzoate containing antioxidants, buffers, pH adjustment.

CN(C)CCc1c[nH]c2cccc(O)c12.O=C(O)c1ccccc1 [DS, psilocin benzoate]
Stability in aqueous solution: short stability in aqueous solution
